Experimental data published in US20080279907A1, “Antimicrobial medical devices and methods for making and using same” (Ash Access Technology, Inc., priority 2007, published 2008).

Experiments:
[1] = Desorption of parabens from paraben impregnated polycarbonate catheter pieces in 0.24 M sodium citrate pH 6.2 (HPLC); type: physicochemical
Description: One inch polycarbonate catheter pieces including a surface area of about 4.64 cm^2 were impregnated with methyl paraben and propyl paraben. A solution of 100% 1,2-propanediol was prepared with 9% methyl paraben and 2% propyl paraben. Pairs of the one inch catheter pieces were placed into three 25 ml flasks including 10 ml of the 1,2-propanediol and paraben solution. The flasks including the catheter pieces were placed on a shaker at 220 rpm and 27° C. for two, four, or nine hour time periods. At the end of each time period, the catheter pieces were removed, rinsed with distilled water, and dried.
Desorption analysis of the paraben impregnated catheter pieces was performed in 0.24 M sodium citrate with a pH of 6.2. The total amount of either methyl paraben or propyl paraben released from the catheter pieces was calculated using HPLC analysis performed with a Waters Alliance 2690 including a 996 Photodiode Array Detector. Each calculation used a solution of HPLC grade H2O, methanol (MeOH), and acetonitrile (CAN) which were pre-filtered through a Millipore 0.45 μm nylon filter before use. Trifluoracetic acid (TFA) was added to H2O and acetonitrile (ACN) to 0.1%. A Waters Symmetry column (C8 3.9×150 mm, 5 μm) was applied with a Waters guard column (Waters, Sentry Guard column, Nova-Pak C18, 60A, 4 μm 3.9×20 mm).
A gradient of 67% H2O/33% ACN was used for 6.5 min, ramped to 45 %/55% from 6.5 to 7.0 min, and kept at 45%/55% until 15.0 min, at 15.0 min the concentration reverted to 67%/33%, and the system was run until 18 min. Injection volume for each sample was 10 μl and samples and column were run at ambient temperature.
Table 2 includes the graphical data represented in FIG. 8 and associated with the desorption of propyl paraben from the paraben impregnated catheter pieces prepared as discussed above. Again, the samples were impregnated only with parabens and desorbed in 10 ml 0.24 M Na-citrate, pH 6.2 over time.

[2] = Perfusion of parabens and methylene blue through polycarbonate membrane in perfusion chamber (HPLC of lower chamber); type: physicochemical
Description: An experiment was performed to determine a method for perfusing methylene blue, methyl paraben, and propyl paraben through a polycarbonate membrane with causing only minimal changes to the strength and elasticity of the membrane. In FIG. 12, there is illustrated a perfusion chamber system 50 used during the experiment. System 50 includes an upper chamber 51 and a lower chamber 52 separated by a polycarbonate membrane 53 having a thickness of 0.60 mm. The upper and lower chambers 51, 52 are generally structured to hold 10.5 cm^3 or 10.5 ml of fluid. The upper chamber 51 was connected to a peristaltic pump (not shown) and the lower chamber 52 was filled with distilled water. First and second solutions, respectively including the parabens and the methylene blue, were prepared in accordance with the method set forth in EXAMPLE 6 above. As best seen in Tables 6 and 7 below, the solutions were connected to the pump and passed through the first chamber 51 at a constant rate at 37° C. over various lengths of time.
Table 6 includes data obtained from HPLC analysis comparing the methyl paraben, propyl paraben, and methylene blue concentrations in the lower chamber 52. The parameters for the methyl and propyl paraben and methylene blue treatments are indicated in the left hand columns.

[3] = lower chamber, 20% PG/80% DI H2O (0.9% MP, 0.2% PP) ~9 hrs at 37 C., then MB ~10 days

- desorption by the end of the study ([1]; nearly 3 months, FIGS. 8 and 9): negligible desorption
- period of significant release ([1]; paraben impregnated catheter pieces, 0.24 M Na-citrate pH 6.2): 20 days
- Total PP released (mg)/1″ catheter ([1]; treatment 2 hrs (100% PG, 9% MP, 2% PP), time 1 hour): 0.048 mg/1″ catheter
- Total PP released (mg)/1″ catheter ([1]; treatment 2 hrs (100% PG, 9% MP, 2% PP), time 3 hours): 0.081 mg/1″ catheter
- Total PP released (mg)/1″ catheter ([1]; treatment 2 hrs (100% PG, 9% MP, 2% PP), time 7 hours): 0.121 mg/1″ catheter
- Total PP released (mg)/1″ catheter ([1]; treatment 2 hrs (100% PG, 9% MP, 2% PP), time 24 hours): 0.121 mg/1″ catheter
- Total PP released (mg)/1″ catheter ([1]; treatment 2 hrs (100% PG, 9% MP, 2% PP), time 4 days): 0.153 mg/1″ catheter
- Total PP released (mg)/1″ catheter ([1]; treatment 2 hrs (100% PG, 9% MP, 2% PP), time 5 days): 0.182 mg/1″ catheter
- Total PP released (mg)/1″ catheter ([1]; treatment 2 hrs (100% PG, 9% MP, 2% PP), time 6 days): 0.209 mg/1″ catheter
- Total PP released (mg)/1″ catheter ([1]; treatment 2 hrs (100% PG, 9% MP, 2% PP), time 8 days): 0.239 mg/1″ catheter
- Total PP released (mg)/1″ catheter ([1]; treatment 2 hrs (100% PG, 9% MP, 2% PP), time 11 days): 0.264 mg/1″ catheter
- Total PP released (mg)/1″ catheter ([1]; treatment 2 hrs (100% PG, 9% MP, 2% PP), time 13 days): 0.288 mg/1″ catheter
- Total PP released (mg)/1″ catheter ([1]; treatment 2 hrs (100% PG, 9% MP, 2% PP), time 15 days): 0.311 mg/1″ catheter
- Total PP released (mg)/1″ catheter ([1]; treatment 2 hrs (100% PG, 9% MP, 2% PP), time 18 days): 0.332 mg/1″ catheter
- Total PP released (mg)/1″ catheter ([1]; treatment 2 hrs (100% PG, 9% MP, 2% PP), time 22 days): 0.352 mg/1″ catheter
- Total PP released (mg)/1″ catheter ([1]; treatment 2 hrs (100% PG, 9% MP, 2% PP), time 29 days): 0.37 mg/1″ catheter
- Total PP released (mg)/1″ catheter ([1]; treatment 2 hrs (100% PG, 9% MP, 2% PP), time 36 days): 0.387 mg/1″ catheter
- Total PP released (mg)/1″ catheter ([1]; treatment 2 hrs (100% PG, 9% MP, 2% PP), time 50 days): 0.404 mg/1″ catheter
- Total PP released (mg)/1″ catheter ([1]; treatment 2 hrs (100% PG, 9% MP, 2% PP), time 67 days): 0.417 mg/1″ catheter
- Total PP released (mg)/1″ catheter ([1]; treatment 2 hrs (100% PG, 9% MP, 2% PP), time 81 days): 0.429 mg/1″ catheter
- Total PP released (mg)/1″ catheter ([1]; treatment 4 hrs (100% PG, 9% MP, 2% PP), time 1 hour): 0.007 mg/1″ catheter
- Total PP released (mg)/1″ catheter ([1]; treatment 4 hrs (100% PG, 9% MP, 2% PP), time 3 hours): 0.069 mg/1″ catheter
- Total PP released (mg)/1″ catheter ([1]; treatment 4 hrs (100% PG, 9% MP, 2% PP), time 7 hours): 0.138 mg/1″ catheter
- Total PP released (mg)/1″ catheter ([1]; treatment 4 hrs (100% PG, 9% MP, 2% PP), time 24 hours): 0.208 mg/1″ catheter
- Total PP released (mg)/1″ catheter ([1]; treatment 4 hrs (100% PG, 9% MP, 2% PP), time 4 days): 0.254 mg/1″ catheter
- Total PP released (mg)/1″ catheter ([1]; treatment 4 hrs (100% PG, 9% MP, 2% PP), time 5 days): 0.293 mg/1″ catheter
- Total PP released (mg)/1″ catheter ([1]; treatment 4 hrs (100% PG, 9% MP, 2% PP), time 6 days): 0.326 mg/1″ catheter
- Total PP released (mg)/1″ catheter ([1]; treatment 4 hrs (100% PG, 9% MP, 2% PP), time 8 days): 0.362 mg/1″ catheter
- Total PP released (mg)/1″ catheter ([1]; treatment 4 hrs (100% PG, 9% MP, 2% PP), time 11 days): 0.393 mg/1″ catheter
- Total PP released (mg)/1″ catheter ([1]; treatment 4 hrs (100% PG, 9% MP, 2% PP), time 13 days): 0.424 mg/1″ catheter
- Total PP released (mg)/1″ catheter ([1]; treatment 4 hrs (100% PG, 9% MP, 2% PP), time 15 days): 0.45 mg/1″ catheter
- Total PP released (mg)/1″ catheter ([1]; treatment 4 hrs (100% PG, 9% MP, 2% PP), time 18 days): 0.476 mg/1″ catheter
- Total PP released (mg)/1″ catheter ([1]; treatment 4 hrs (100% PG, 9% MP, 2% PP), time 22 days): 0.497 mg/1″ catheter
- Total PP released (mg)/1″ catheter ([1]; treatment 4 hrs (100% PG, 9% MP, 2% PP), time 29 days): 0.518 mg/1″ catheter
- Total PP released (mg)/1″ catheter ([1]; treatment 4 hrs (100% PG, 9% MP, 2% PP), time 36 days): 0.539 mg/1″ catheter
- Total PP released (mg)/1″ catheter ([1]; treatment 4 hrs (100% PG, 9% MP, 2% PP), time 50 days): 0.569 mg/1″ catheter
- Total PP released (mg)/1″ catheter ([1]; treatment 4 hrs (100% PG, 9% MP, 2% PP), time 67 days): 0.585 mg/1″ catheter
- Total PP released (mg)/1″ catheter ([1]; treatment 4 hrs (100% PG, 9% MP, 2% PP), time 81 days): 0.6 mg/1″ catheter
- Total PP released (mg)/1″ catheter ([1]; treatment 9 hrs (100% PG, 9% MP, 2% PP), time 1 hour): 0.082 mg/1″ catheter
- Total PP released (mg)/1″ catheter ([1]; treatment 9 hrs (100% PG, 9% MP, 2% PP), time 3 hours): 0.124 mg/1″ catheter
- Total PP released (mg)/1″ catheter ([1]; treatment 9 hrs (100% PG, 9% MP, 2% PP), time 7 hours): 0.175 mg/1″ catheter
- Total PP released (mg)/1″ catheter ([1]; treatment 9 hrs (100% PG, 9% MP, 2% PP), time 24 hours): 0.221 mg/1″ catheter
- Total PP released (mg)/1″ catheter ([1]; treatment 9 hrs (100% PG, 9% MP, 2% PP), time 4 days): 0.279 mg/1″ catheter
- Total PP released (mg)/1″ catheter ([1]; treatment 9 hrs (100% PG, 9% MP, 2% PP), time 5 days): 0.331 mg/1″ catheter
- Total PP released (mg)/1″ catheter ([1]; treatment 9 hrs (100% PG, 9% MP, 2% PP), time 6 days): 0.375 mg/1″ catheter
- Total PP released (mg)/1″ catheter ([1]; treatment 9 hrs (100% PG, 9% MP, 2% PP), time 8 days): 0.422 mg/1″ catheter
- Total PP released (mg)/1″ catheter ([1]; treatment 9 hrs (100% PG, 9% MP, 2% PP), time 11 days): 0.463 mg/1″ catheter
- Total PP released (mg)/1″ catheter ([1]; treatment 9 hrs (100% PG, 9% MP, 2% PP), time 13 days): 0.5 mg/1″ catheter
- Total PP released (mg)/1″ catheter ([1]; treatment 9 hrs (100% PG, 9% MP, 2% PP), time 15 days): 0.533 mg/1″ catheter
- Total PP released (mg)/1″ catheter ([1]; treatment 9 hrs (100% PG, 9% MP, 2% PP), time 18 days): 0.565 mg/1″ catheter
- Total PP released (mg)/1″ catheter ([1]; treatment 9 hrs (100% PG, 9% MP, 2% PP), time 22 days): 0.594 mg/1″ catheter
- Total PP released (mg)/1″ catheter ([1]; treatment 9 hrs (100% PG, 9% MP, 2% PP), time 29 days): 0.622 mg/1″ catheter
- Total PP released (mg)/1″ catheter ([1]; treatment 9 hrs (100% PG, 9% MP, 2% PP), time 36 days): 0.65 mg/1″ catheter
- Total PP released (mg)/1″ catheter ([1]; treatment 9 hrs (100% PG, 9% MP, 2% PP), time 50 days): 0.687 mg/1″ catheter
- Total PP released (mg)/1″ catheter ([1]; treatment 9 hrs (100% PG, 9% MP, 2% PP), time 67 days): 0.708 mg/1″ catheter
- Total PP released (mg)/1″ catheter ([1]; treatment 9 hrs (100% PG, 9% MP, 2% PP), time 81 days): 0.727 mg/1″ catheter
- time until perfused through the membrane and detected in the lower chamber ([2]; 0.60 mm polycarbonate membrane, 37° C.): within two hours
- PP conc [2, 3]: 0.01 mg/mL
- Total mg PP in 10.5 ml lower chamber [2, 3]: 0.105 mg
SMILES: CCCOC(=O)c1ccc(O)cc1 [PP, propyl paraben]
